# Test results published in US20100316626A1, “METHODS FOR TREATMENT AND DIAGNOSIS OF PSYCHIATRIC DISORDERS” (THE GOVERNMENT OF THE UNITED STATES OF AMERICA AS …, priority 2006, published 2010).
# pIC50, pKd: −log10 of the molar value.
# Experiments:
# [1] = system: A431, SK-BR-3 and MDA-MB-453 cells; details: cited from earlier work
# FGF receptor = details: at μM concentrations; cited from earlier work
# [2] = system: surface seGFP-GluR1 AMPA receptors; test: Live imaging of surface seGFP-GluR1 in transfected dissociated hippocampal neurons; format: cell-based, rat; details: PD158780 5 min before and during NRG-1; FIG. 6A
# Experimental: Dissociated hippocampal cultures and chemLTP induction: Hippocampal neuronal cultures from E19 rat pups were prepared as reported previously. C. S. Herrmann et al., Clin Neurophysiol 116: 2719, 2005; A. Fisahn, et al., Nature 394: 186, 1998. Neurons were plated on 12 mm glass coverslips in 24 well plates at a density of 50,000 cells/well. ChemLTP was induced in cultures essential as described previously with minor modifications (Liao et al., 2001; Lu et al., 2001). Briefly, cells grown for 5 days in vitro (DIV5) were switched to medium containing 200 μM APV and maintained in Neurobasal media supplemented with B-27 (Invitrogen) until DIV18 to DIV22. […]
# Live imaging in transfected hippocampal neurons of surface seGFP-tagged GluR1 AMPARs. […] Cells were perfused with […] glycine-containing medium used to induce chemLTP prior to capturing images and recorded for 4 min. […] Immediately after quenching with acidic MES buffer, cultures were switched back to 200 μM glycine in HBBSS (pH 7.4) for 2 min to recover the fluorescence. […] Images were detected with a cooled CCD camera (10 mW output, 12 bits, 1344×1024 pixels, Hamamatsu Orca ER) using 400 msec of exposure and 2×2 binning. Fluorescence was determined in 20-μm segments of neuronal processes that were at least 10 μm removed from the neuronal soma. […] Significance was evaluated by 1-way-ANOVA.
# ErbB receptors [3] = details: A431, SK-BR-3 and MDA-MB-453 cells; read-out: IC50 for block of ErbB phosphorylation; cited from earlier work
# ErbB receptors [4] = details: cited from earlier work
# [5] = system: LTP at Schaffer collateral-CA1 synapses; test: LTP and LTP depotentiation at Schaffer collateral-CA1 synapses in acute hippocampal slices; format: cell-based, mouse; details: for block of the effects of NRG-1β on LTP by ErbB RTK inhibitors: inhibitor 10 μM applied 10 min prior to NRG-1, FIG. 3D
# Experimental: (§1) Acute mouse hippocampal slice preparation: Hippocampal slices from 4 to 5 week old C57BL/6 mice were prepared in ice-cold artificial cerebrospinal fluid (ACSF) and cut on a 1000PLUS Vibratome (VIBRATOME, St. Louis, USA) to a thickness of ˜300 μm.
# Electrophysiological recordings in mouse hippocampal slices: A single slice was transferred to a submerged recording chamber continuously perfused at a flow rate of 2 mL/min (30° C.) with recording ACSF (same as cutting ACSF minus the ascorbate, myo-inositol and pyruvate). Recordings were performed in 10 μM bicuculline (Tocris, USA) to block inhibitory activity. […] A borosilicate two-barrel stimulation electrode (World Precision Instruments, Sarasota, Fla.) with a silver wire (A-M Systems, Carlsberg, Wash.) was filled with oxygenated ACSF recording solution and placed in the stratum radiatum to stimulate the Schaffer collateral/commissural fibers at 0.05 Hz (0.1 msec, 20-40 μA) via a stimulus isolator (A365, World Precision Instruments, Sarasota, Fla.). Data were collected with a Multiclamp 700A amplifier (Axon Instrument, Foster city, CA). The recordings were digitized at a sampling rate of 10 kHz and filtered at 3 kHz. Baseline fEPSP slopes were set to 40-50% of maximum response. Baseline recordings of at least 10 min were obtained once stable basal transmission was observed. LTP was induced using a theta burst stimulation (TBS) protocol that consisted of 5 trains delivered at 0.2 Hz. […] To measure the AMPAR or the NMDAR components of evoked EPSCs, voltage-clamp recordings from CA1 pyramidal neurons were performed at holding potentials of −70 mV to measure the AMPAR component (10 EPSCs during 1 min) or at +40 mV to measure the NMDAR component. The AMPAR or NMDAR mediated EPSCs were measured 5 min prior to delivering the TBS, at approximately 20 min after inducing LTP (when the response stabilized), and at 10 and 40 min after commencing NRG-1β1 perfusion. In other experiments NMDAR EPSCs were recorded in potentiated slices prior to and after NRG-1 treatment at +40 mV (plus […] CNQX) to inhibit residual AMPAR currents. Paired-pulse facilitation was analyzed in whole-cell current-clamp recordings with inter-pulse intervals set to 50, 100, 150 and 200 msec.
# Peptides corresponding to the splice variants of the EGF-like domains of NRG-1β1 and NRG-1α2 were dissolved in recording ACSF solution to a final concentration 0.1 or 1 nM. NRG was delivered for 10 min in external recording ACSF solution 20, 30 or 50 min following TBS. The ErbB receptor inhibitors PD158780 (10 μM) and PD168393 (10 μM) were diluted in ACSF solution and applied to the slices 10 min prior to NRG-1 addition to ensure diffusion into the cell and efficient receptor inhibition. […] Data were analyzed for significance using the Student's t-test. […]
# PDGF receptor = details: at μM concentrations; cited from earlier work
# [6] = system: basal synaptic transmission in hippocampal slices; test: Basal synaptic transmission in acute hippocampal slices (field recordings); format: cell-based, mouse; details: D2-selective inhibitors perfused in hippocampal slices; FIG. 11A
# Experimental: as §1
# Electrophysiological recordings in mouse hippocampal slices: A single slice was transferred to a submerged recording chamber continuously perfused at a flow rate of 2 mL/min (30° C.) with recording ACSF (same as cutting ACSF minus the ascorbate, myo-inositol and pyruvate). Recordings were performed in 10 μM bicuculline (Tocris, USA) to block inhibitory activity. […] The AMPAR or NMDAR mediated EPSCs were measured 5 min prior to delivering the TBS, at approximately 20 min after inducing LTP (when the response stabilized), and at 10 and 40 min after commencing NRG-1β1 perfusion. In other experiments NMDAR EPSCs were recorded in potentiated slices prior to and after NRG-1 treatment at +40 mV (plus […] CNQX) to inhibit residual AMPAR currents. Paired-pulse facilitation was analyzed in whole-cell current-clamp recordings with inter-pulse intervals set to 50, 100, 150 and 200 msec.
# Peptides corresponding to the splice variants of the EGF-like domains of NRG-1β1 and NRG-1α2 were dissolved in recording ACSF solution to a final concentration 0.1 or 1 nM. […] Data were analyzed for significance using the Student's t-test. […]
block of NRG-1-induced internalization of seGFP-GluR1 [2],Compound,concentration that blocks proliferation [1],cross-reactivity with FGF receptor (FGF receptor),pIC50 (ErbB receptors [3]),dissociation rate and autophosphorylation inhibition of the receptors (ErbB receptors [4]),"pKd (ErbB receptors [4]; reconstituted receptors in vitro, read-out: affinities (binds competitively with ATP in the pocket))",block of the effects of NRG-1β on LTP by ErbB RTK inhibitors [5],"effect on LTP depotentiation elicited by TPS ([5]; two-pathway approach, FIG. 4C,D)",cross-reactivity with PDGF receptor (PDGF receptor),effect on basal synaptic transmission [6],"effect on NRG-1-evoked LTP depotentiation ([5]; 50 nM, FIG. 11C)"
completely blocked,"CNc1cc2c(Nc3cccc(Br)c3)ncnc2cn1 [PD158780, 4-[(3-Bromophenyl)amino]-6-(methylamino)-pyrido[3,4-d]pyridimine]",0.1 to 1 µM,no cross-reactivity,7.30 to 7.82,extremely slow (several hours),9.00 to 10.00,completely blocked,block LTP depotentiation,no cross-reactivity,–,–
–,Clc1ccc(N2CCN(Cc3c[nH]c4ncccc34)CC2)cc1 [L745870],–,–,–,–,–,–,–,–,no effect,prevent NRG-1-evoked LTP depotentiation
–,"C=CC(=O)Nc1ccc2ncnc(Nc3cccc(Br)c3)c2c1 [PD168393, 4-[3(Bromophenyl)amino]-6-acrylamidoquinazoline]",–,–,–,–,–,completely blocked,–,–,–,–
